From patent US20260337187A1, “COMPOUNDS FOR TREATMENT OF INFLAMMATORY PROCESSES” (THORNE LIMITED, priority 2022, published 2026)

Columns and labels:
[1] = tested on: human primary mast cells; experiment: Mast cell degranulation (Lamp-1/CD107a by FACS); assay type: cell-based; conditions: IgE/anti-IgE; FIG. 6 (100, 50, 20 μM)
Protocol: Three different concentrations of B2 were tested (from left to right: 100, 50 and 20 μM) and the average of 11 experiments is shown as % reduction in degranulation (left plot). Degranulation was also measured at 3 time points (from left to right: 30, 15 and 5 minutes) after addition of 100 μM B2 (right plot).
Mast cell degranulation: Human primary mast cells were developed in StemSpan™ SFEM including 125 ng/ml SCF and 20 ng/ml IL3 from CD34+ hematopoietic precursor cells, and their purity after 4 to 5 weeks measured by FACS for c-kit and FceRI expression. This was measured by FACS using the appearance of Lamp-1 (CD107a) in line with that previously described by Klewer et al. (2021), applied here to human primary mast cells. Degranulation was triggered by preincubation of mast cells overnight with 1.3 μg/ml IgE followed by treatment with 0.2 μg/ml anti-IgE for 30 min.
To investigate the inhibition of mast cell degranulation by B2, degranulation was measured by FACS using the appearance of Lamp-1 (CD107a) on the surface of human primary mast cells upon degranulation. Degranulation was triggered by IgE/anti-IgE and B2 was applied 30 minutes before adding IgE. Three different concentrations of B2 were tested; from left to right in FIG. 6 (left plot): 100, 50 and 20 μM. […] Degranulation was also measured at 3 time points after addition of 100 μM B2 (FIG. 6, right plot).

[2] = tested on: primary peripheral blood monocytes; experiment: Macrophage/monocyte migration to CCL2 (Boyden chamber/Transwell); assay type: cell-based, human; conditions: 50 μM B2, towards CCL2 (FIG. 10)
Protocol: Dark grey: dimethylsulfoxide (DMSO) only; light grey: 50 μM B2. An exemplary experiment out of four is shown.
Macrophage/monocyte migration: Monocytes/macrophages were purified from buffy coats, first by density gradient centrifugation on ficoll to isolate total PBMC, and then by negative selection using the monocyte purification kit from Miltenyi Inc. as per manufacturer's instructions. Monocytes were then resuspended in tissue culture media at a concentration of 5×10^6 per ml. Monocyte migration to CCL2 was then measured using a Boyden chamber assay fitted with a membrane with […] pores. This was performed as follows: 200 μl of cells were pipetted into the upper chamber in the presence or absence of B2 or DMSO control. In the lower chamber 1 ml of the chemokine solution at concentrations of 10 ng/mL and 100 ng/mL, together with the same amount of B2 or DMSO as in the upper chamber was added. Cells were then left to migrate for 6 hours and the number of cells migrating into the lower chamber was ascertained by standard cell counting.
To investigate the inhibition of macrophage/monocyte migration by B2, primary peripheral blood monocytes were isolated from buffy coat and subsequent negative selection. […] Migrated cells were quantified after 5 hours in the presence of carrier (DMSO) only or 50 μM B2 in DMSO (FIG. 10).

[3] = tested on: primary human mast cells; experiment: Mast cell cytokine release (cytokine array); assay type: cell-based; conditions: 100 μM B2, 24 h, IgE/anti-IgE
Protocol: FIG. 8 is a plot showing average relative intensity of cytokine levels relative to control showing the modulation of mast cell cytokine release by B2. Average of 3 experiments.
Mast cell cytokine release: Primary human mast cells developed in culture from CD34+ precursors as described above in relation to mast cell degranulation were stimulated at a cell density of 0.8×10^6 cells/ml by 0.12 mg/ml IgE and 0.1 μg/ml anti-IgE in mast cell medium (StemSpan SFEM including 100 ng/ml SCF, 50 ng/ml IL6, 2 & FBS, and 1% Pen/Strep). Simultaneously, the cells were treated with 100 μM B2, and cytokine levels present in the culture supernatants were measured after 24 h. The levels of 105 cytokines were measured by the R&D Systems Human XL cytokine array as per manufacturer's instructions. The signals were measured by a fluorescence-based photometric read-out in the Li—COR Odyssey Fluorescent imaging system, and the spots quantified by Fiji software.
To investigate the modulation of mast cell cytokine release by B2, primary human mast cells were stimulated by IgE/anti-IgE, treated with 100 μM B2, and cytokine levels present in the culture supernatants measured after 24 h. The levels of 105 cytokines were measured by the R&D Systems Human XL cytokine array and a fluorescence-based photometric read-out.

[4] = tested on: human primary neutrophils; experiment: Neutrophil ROS production (fMLP triggered, DHR-123, FACS); assay type: cell-based
Protocol: The effect of 4 different concentrations (from left to right: 100, 50, 20 and 10 μM) of B2 is shown. Each symbol represents one experiment.
Neutrophil ROS production: Neutrophil reactive oxygen species (ROS) production was measured on human primary neutrophils, isolated from fresh blood samples using the MACSexpress™ neutrophil kit as described in the manufacturer's instructions (Miltenyi Biotec Inc.). Neutrophils in RPMI containing 50 μm dihydrorhodamine 123 (DHR-123) were triggered to produce ROS by treatment with 20 μm bacterial peptide N-formylmethionyl-leucyl-phenylalanine (fMLP) as a physiologically relevant stimulant. ROS were measured by FACS based on the conversion of DHR-123 to Rhodamine-123.
To investigate the effect of neutrophil ROS production by B2, human primary neutrophils, isolated from fresh blood samples, were triggered to produce reactive oxygen species (ROS) by treatment with the bacterial peptide N-formylmethionyl-leucyl-phenylalanine (fMLP) as a physiologically relevant stimulant and ROS were measured by FACS based on the conversion of dihydrorhodamine 123 to rhodamine 123. The effect of 4 different concentrations of B2 is shown (FIG. 2).

[5] = tested on: SWAP-70; experiment: FACS-FRET of SWAP-70 dimerization in living cells; assay type: cell-based
Protocol: B2 was added to the cells 15 minutes prior to stimulation.
(§1) FACS-FRET of SWAP-70 in living cells: The method was in line with that previously described by Betaneli and Jessberger (2020). Briefly, two versions of SWAP-70, differently tagged with the fluorescent dyes Cerulean and Venus, were stably expressed in 293T cells. Upon activation of the cells, e.g., by sodium vanadate, SWAP-70 dimerizes. Thereby the two fluorophores associate and generate a fluorescence resonance energy transfer (FRET) signal, which is measured by FACS. FACS-FRET allows to analyze large numbers of cells simultaneously.
as §1, with “Two” for “FACS-FRET of SWAP-70 in living cells: The method was in line with that previously described by Betaneli and Jessberger (2020). Briefly, two”, “simultaneously. […] B2 was added to the cells 15 minutes prior to stimulation.” for “simultaneously.”

For Cc1onc(-c2ccccc2Cl)c1C(=O)Nc1nc2ccc([N+](=O)[O-])cc2s1 [B2, 3-(2-chlorophenyl)-5-methyl-N-(6-nitrobenzo[d]thiazol-2-yl)isoxazole-4-carboxamide], which “IgE-mediated mast cell degranulation” value [1] is on record?
Its value is “inhibited by B2 in IgE-mediated degranulation”.

And the macrophage migration [2]?
The macrophage migration was “reduces macrophage migration”.

What about the “mast cell cytokine release profile” value [3] of the same molecule?
Its value is “reducing specific pro-inflammatory cytokines”.

And the “inhibition of neutrophil ROS production” value ([4]; 50 μM B2, fMLP)?
The value was “clear inhibition of ROS production”.

And the “inhibition of neutrophil ROS production” value ([4]; 100 μM B2, fMLP)?
Its value is “clear inhibition of ROS production”.

What about the “neutrophil ROS production” value ([4]; fMLP, concentration not given in the sentence (FIG. 2)) of the same molecule?
The value was “substantially reduced”.

And the “FACS-FRET signal, SWAP-70 dimerization at earlier time intervals” value ([5]; 50 μM B2, 5-10 and 10-15 minutes after stimulation, B2 added 15 minutes prior)?
Its value is “inhibition by 50 μM B2 at earlier time intervals”.

And the “FACS-FRET signal (FRET efficiency), SWAP-70 dimerization” value ([5]; 50, 25 and 10 μM B2, 20 minutes after stimulation, B2 added 15 minutes prior)?
The value was “inhibition of the FACS-FRET signal”.

And the “SWAP-70 dimerization in living cells” value ([5]; 293T cells, sodium vanadate activation)?
The value was “inhibits SWAP-70 dimerization in living cells”.
